Measurements from patent publication US5006533A, “Certain 3-bromo-2,6-dimethoxybenzamides and pharmaceutical use thereof” (Boehringer Ingelheim GmbH, priority 1986, dated 1991).
Structures can show the parent of a compound that is named as a salt.

Legend:
[1] = tested on: rhesus monkeys sensitised with haloperidol; experiment: dyskinesia in rhesus monkeys sensitised with haloperidol; assay type: in vivo, rhesus monkey; conditions: for Dyskinesia threshold dose p.o.: rhesus monkeys sensitised with haloperidol; for Dyskinesia index I:II: ratio of climbing test ED50 (I) to dyskinesia threshold dose (II)
Source text: The dyskinetic effects are among the most disturbing side effects of neuroleptic drugs. These include Parkinsonian manifestations such as tremor, rigidity and akinesia but also dyskinesia in the mouth-tongue-pharynx region.
The investigation of such symptoms in an animal model is possible using rhesus monkeys sensitised with haloperidol. After being given neuroleptic drugs, which have extrapyramidal motor effects in humans, these animals show typical dyskinesia in the mouth and tongue region (according to J. Liebmann and R. Neale, Psychopharmacology 68, 25-29 (1980) modified).

[2] = tested on: apomorphine climbing, mouse; experiment: apomorphine climbing test on the mouse; assay type: in vivo; conditions: after 1 h
LD50 (mouse) p.o. = conditions: in vivo, po

In the case of `COc1ccc(Br)c(OC)c1C(=O)NC1CC2CC(O)C(C1)N2Cc1ccc(Cl)cc1` (racemic) [X = Cl, N-[8-(4-Chlorobenzyl)-6-hydroxy-3-nortropanyl]-2,6-dimethoxy-3-bromobenzamide-hydrochloride], the “Dyskinesia threshold dose p.o.” value [1] is reported as 30 mg/kg, the “Dyskinesia index I:II” value [1] is reported as 0.028 and the ED50 [2] is reported as 0.85 mg/kg. The LD50 (LD50 (mouse) p.o.) was over 1000 mg/kg.
With `COc1ccc(Br)c(OC)c1C(=O)NC1CC2CCC(C1)N2Cc1ccccc1` (stereo not drawn) [A, N-(8-benzyl-3-nortropanyl)-2,6-dimethoxy-3-bromobenzamide, reference compound] the “Dyskinesia threshold dose p.o.” value [1] was 10 mg/kg, the “Dyskinesia index I:II” value [1] was 0.18 and the ED50 [2] was 1.8 mg/kg. For the same molecule, the LD50 (LD50 (mouse) p.o.) was about 300 mg/kg.
In the case of `COc1ccc(Br)c(OC)c1C(=O)NC1CC2CC(O)C(C1)N2Cc1ccc(F)cc1` (stereo not drawn) [X = F, N-[8-(4-Fluorobenzyl)-6-hydroxy-3-nortropanyl]-2,6-dimethoxy-3-bromobenzamide-hydrochloride], the “Dyskinesia threshold dose p.o.” value [1] is reported as 8 mg/kg, the “Dyskinesia index I:II” value [1] is reported as 0.078 and the ED50 [2] is reported as 0.63 mg/kg.
In the case of `COc1ccc(Br)c(OC)c1C(=O)NC1CC2CC(O)C(C1)N2Cc1ccccc1` (stereo not drawn) [X = H, N-(8-Benzyl-6-hydroxy-3-nortropanyl)-2,6-dimethoxy-3-bromobenzamide fumarate], the “Dyskinesia threshold dose p.o.” value [1] is reported as over 15 mg/kg, the “Dyskinesia index I:II” value [1] is reported as under 0.08 and the ED50 [2] is reported as 1.2 mg/kg. It also gave an LD50 (LD50 (mouse) p.o.) of about 300 mg/kg.
